Data taken from patent publication US10870858B2 (priority 2014, dated 2020).

Test system: stably-integrated TK strains
Experiment: FUdR counterselection of TK versus tk cells on SC media
Assay type: cell-based, Saccharomyces
Settings: 50 μg/mL FUdR in synthetic complete (SC) media
Protocol: With a stably integrated copy of HSV-TK in each of several genomes, we were able to evaluate counterselection media conditions. […] As an initial test of our ability to recover newly generated tk wild-type cells, we transformed a strain of S. kudriavzevii that had regions of identical sequence on either side of its hoΔ::NatMX locus with TkMX PCR product and selected for cells resistant to the antifolate drugs (FIG. 4A). When counterselection with SC+FUdR media was conducted, only cells that had deleted the TkMX marker by homologous recombination survived and yielded colonies resistant to FUdR (FIG. 4B).

Structure (SMILES): O=c1[nH]c(=O)n([C@H]2C[C@H](O)[C@@H](CO)O2)cc1F [FUdR, 5-fluorodeoxyuridine]
- growth of stably-integrated TK strains: sufficient to inhibit growth
- growth of tk wild-type cells: allow growth
